Each block holds one compound with its values, some of them ahead of it.
Tests used:
Rattus norvegicus = experiment: Antinociceptive activity in ip dosed rat Chung model of neuropathic pain; type: functional
P2X purinoceptor 7 [1] = target: T1, P2X purinoceptor 7 (Rattus norvegicus, UniProt Q64663); experiment: Activity at rat P2X7 receptor expressed in HEK cells assessed as effect on BzATP-induced ethidium uptake; type: cell-based, HEK293
T1 sequence (Q64663 whole entry): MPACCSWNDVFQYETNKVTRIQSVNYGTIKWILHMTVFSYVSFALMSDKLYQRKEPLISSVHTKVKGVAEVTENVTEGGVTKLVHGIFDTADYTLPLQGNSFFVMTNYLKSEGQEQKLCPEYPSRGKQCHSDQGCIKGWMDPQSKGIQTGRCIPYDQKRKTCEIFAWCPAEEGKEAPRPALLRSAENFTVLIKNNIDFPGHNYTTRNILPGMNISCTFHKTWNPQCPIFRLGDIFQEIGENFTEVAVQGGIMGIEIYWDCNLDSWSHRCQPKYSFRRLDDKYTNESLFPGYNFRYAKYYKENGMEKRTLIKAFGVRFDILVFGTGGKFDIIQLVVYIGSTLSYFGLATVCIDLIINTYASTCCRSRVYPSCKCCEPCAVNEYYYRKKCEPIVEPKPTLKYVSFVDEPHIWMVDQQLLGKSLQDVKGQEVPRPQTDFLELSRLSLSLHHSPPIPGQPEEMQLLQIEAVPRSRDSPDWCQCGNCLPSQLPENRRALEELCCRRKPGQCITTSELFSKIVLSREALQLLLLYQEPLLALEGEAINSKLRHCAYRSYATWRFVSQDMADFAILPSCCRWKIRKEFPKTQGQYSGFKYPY

P2X purinoceptor 7 [2] = target: T2, P2X purinoceptor 7 (Homo sapiens, UniProt Q99572); experiment: Antagonist activity at P2X7 receptor in human THP1 cells assessed as inhibition of BzATP-induced ethidium uptake; type: functional, cell-based, THP-1
T2 sequence (Q99572 whole entry): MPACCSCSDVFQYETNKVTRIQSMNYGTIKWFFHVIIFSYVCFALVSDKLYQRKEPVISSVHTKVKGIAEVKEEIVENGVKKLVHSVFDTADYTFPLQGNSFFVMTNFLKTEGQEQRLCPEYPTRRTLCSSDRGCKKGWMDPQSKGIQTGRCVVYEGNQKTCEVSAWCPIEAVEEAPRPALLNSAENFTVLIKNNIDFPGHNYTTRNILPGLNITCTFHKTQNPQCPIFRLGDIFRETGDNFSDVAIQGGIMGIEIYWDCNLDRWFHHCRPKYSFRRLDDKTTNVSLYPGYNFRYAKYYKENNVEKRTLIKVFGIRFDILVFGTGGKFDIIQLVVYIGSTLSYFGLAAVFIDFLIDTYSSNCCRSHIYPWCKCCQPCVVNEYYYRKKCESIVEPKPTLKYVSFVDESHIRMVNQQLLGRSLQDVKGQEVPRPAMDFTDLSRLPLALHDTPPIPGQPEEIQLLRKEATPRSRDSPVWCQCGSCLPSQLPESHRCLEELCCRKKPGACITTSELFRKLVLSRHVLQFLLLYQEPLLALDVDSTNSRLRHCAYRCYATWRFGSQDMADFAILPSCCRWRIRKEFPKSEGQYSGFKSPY

P2X purinoceptor 7 [3] = target: T2, P2X purinoceptor 7; experiment: Antagonist activity at human P2X7 receptor expressed in HEK293 cells assessed as inhibition of ATP-induced ethidium uptake
P2X purinoceptor 7 [4] = target: T2, P2X purinoceptor 7; experiment: Antagonist activity at human P2X7 receptor expressed in HEK293 cells assessed as inhibition of BzATP-induced calcium influx; type: functional, cell-based; conditions: hek293
[5] = target: T3, P2X purinoceptor 7 (Homo sapiens) (UniProt Q99572); experiment: Inhibition of human P2X7 receptor in human PBMC assessed as inhibition of BzATP-induced IL1-beta release at 0.03 uM
T3 sequence (whole entry): T2 sequence (Q99572 whole entry)

[6] = Half life in rat; type: ADME, organism-based; conditions: in vivo
[7] = Plasma clearance in rat; type: ADME, organism-based
[8] = Bioavailability in rat; type: ADME, organism-based; conditions: in vivo
Mus musculus = experiment: In vivo receptor activity at P2X7 receptor in mouse model assessed as ATP-induced IL1-beta release; type: functional
[9] = Volume of distribution at steady state in rat; type: ADME, organism-based; conditions: in vivo, read-out: Vdss
[10] = Protein binding in rat plasma; type: ADME, cell-free; conditions: read-out: PB (converted)
[11] = Half life in ip dosed rat; type: ADME, organism-based; conditions: in vivo
P2X purinoceptor 7 [12] = target: T2, P2X purinoceptor 7; experiment: Antagonist activity at human P2X7 receptor expressed in human U373 cells assessed as inhibition of BzATP-induced Yo-Pro uptake; type: functional, cell-based, U-373MG ATCC
P2X purinoceptor 7 [13] = target: T2, P2X purinoceptor 7; experiment: Inhibition of human P2X7 receptor assessed as inhibition of BzATP-induced IL1-beta release
[14] = Half life in Sprague-Dawley rat; type: ADME, organism-based; conditions: in vivo
[15] = Plasma clearance in Sprague-Dawley rat; type: ADME, organism-based
[16] = Terminal phase volume of distribution in Sprague-Dawley rat; type: ADME, organism-based; conditions: in vivo, read-out: Vbeta
[17] = Bioavailability in Sprague-Dawley rat; type: ADME, organism-based; conditions: in vivo

Compound: Cc1n[nH]c(C)c1CC(=O)NCc1ccc(F)c(C(F)(F)F)c1
- IC50 (P2X purinoceptor 7 [3]): < 3160 nM
- pIC50 (P2X purinoceptor 7 [4]): > 4.7

Compound: Cc1ccc(C(=O)N2CC3CNCC(C2)O3)cc1NC(=O)CC12CC3CC(CC(C3)C1)C2
- fraction unbound [10]: 0.34

Compound: Fc1cccc(CNC2=N[C@@H](c3cccc(F)c3)[C@@H](c3cccc(F)c3)N2)c1
- IC50 (P2X purinoceptor 7 [12]): 63.1 nM
- IC50 (P2X purinoceptor 7 [13]): 1260 nM

Compound: COc1ccc(CC(=O)NC(N/C(=N/C#N)Nc2cccc3ncccc23)C(C)(C)C)cc1OC (stereo not given)
- half-life [14]: 4 h
- clearance [15]: 62 mL/min/kg
- Vd [16]: 21 L/kg
- bioavailability [17]: 20%

Continued, in another order:

- IC50 (P2X purinoceptor 7 [1]): 200 nM
- IC50 (P2X purinoceptor 7 [2]): 79.4 nM
Compound: Cc1ccccc1Cn1cnnc1-c1cccc(Cl)c1Cl
- Efficacy (Rattus norvegicus): 68%

- inhibition [5]: 50%
Compound: O=C(NCC12CC3CC(CC(C3)C1)C2)c1ncnc2c1CCN(Cc1ccccc1)C2

- half-life [6]: 3 h
- clearance [7]: 9 mL/min/kg
- bioavailability [8]: 44%
- IC50 (P2X purinoceptor 7 [2]): 316 nM
- Vd [9]: 0.3 L/kg
Compound: O=C(NCCc1ccccc1Cl)c1cc(-n2ncc(=O)[nH]c2=O)ccc1Cl
- ED50 (Mus musculus): 20 mg/kg

- half-life [11]: 1 h
Compound: Clc1cccc(-c2nnnn2Cc2cccnc2)c1Cl

Reference: ChEMBL document CHEMBL1151820, “Antagonists of the P2X(7) receptor. From lead identification to drug development” (J Med Chem, 2009)
